Reference: PubChem BioAssay (NCI)
Values joined by “and” are separate entries in the source; they are usually repeats but may differ in a detail not shown here. Equal values may be shown once.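 A five-concentration, 48-hour dose response in 96-well plates underlies each endpoint, interpolated linearly between surrounding concentrations. GI50: concentration for 50% inhibition of growth. TGI marks complete inhibition of growth.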

Key:
Assay in all cases: growth of human tumour cells (NCI), 48 h
A498 renal = test system: A498 renal
U251 CNS = test system: U251 CNS
MOLT-4 leukemia = test system: MOLT-4 leukemia
A549 NSCLC = test system: A549 NSCLC
TK-10 renal = test system: TK-10 renal
NCI-H460 lung = test system: NCI-H460 lung
NCI-H23 lung = test system: NCI-H23 lung
EKVX NSCLC = test system: EKVX NSCLC
HOP-62 NSCLC = test system: HOP-62 NSCLC
K-562 leukemia = test system: K-562 leukemia

Row | SMILES | TGI (A498 renal) [µM] | TGI (U251 CNS) [µM] | TGI (MOLT-4 leukemia) [µM] | TGI (A549 NSCLC) [µM] | TGI (TK-10 renal) [µM] | TGI (NCI-H460 lung) [µM] | TGI (NCI-H23 lung) [µM] | TGI (EKVX NSCLC) | TGI (HOP-62 NSCLC) [µM] | TGI (K-562 leukemia) [µM] | GI50 (A498 renal) [µM] | GI50 (TK-10 renal) [µM] | GI50 (NCI-H460 lung) [µM] | GI50 (NCI-H23 lung) [µM] | GI50 (EKVX NSCLC) [µM]
1 | CC[N+](C)(CC)CCN1C(=O)c2ccccc2S1(=O)=O | > 100 | > 100 | > 100 | > 100 | > 100 | > 100 | > 100 | > 100 µM | > 100 | – | – | – | – | – | –
2 | O=C1[C@@H]2Cc3c([nH]c4ccccc34)C(C3CCCCC3)N2C(=O)[C@@H]2CCCN12 (some centres undefined) | > 100 | > 100 | 57 | > 100 | > 100 | – | > 100 | > 100 µM | > 100 | > 100 | – | – | – | – | –
3 | NC(CCCCNC(=O)OCc1ccccc1)C(=O)NC(CCCCNC(=O)OCc1ccccc1)C(=O)ON1C(=O)CCC1=O (centres undefined) | > 100 | > 100 | > 100 | > 100 | > 100 | > 100 | > 100 | > 100 µM | > 100 | > 100 | – | – | – | – | –
4 | NC(=O)COc1ccccc1 | > 100 | > 100 | > 100 | > 100 | > 100 | > 100 | > 100 | > 100 µM | > 100 | > 100 | – | – | – | – | –
5 | N#Cc1c2c(c(N3CCOCC3)n3c1nc1ccccc13)CCCC2 | 34.5 | 28.3 | 41.5 | 61.7 | 49.3 | 56.4 | 47.3 | 35.9 µM | – | > 100 | – | – | – | – | –
6 | COc1ccc(OC)c2cc(Cc3ccc(N(C)C)cc3)c(=O)c(Cc3ccc(N(C)C)cc3)cc12 | 96.2 | > 100 | > 100 | > 100 | – | > 100 | > 100 | > 100 µM | > 100 | > 100 | – | – | – | – | –
7 | COC(=O)c1cncc2c1CC1C3(C(=O)OC)C=NC(C4C(CO)=CCC43)C21C (centres undefined) | > 100 | > 100 | > 100 | > 100 | > 100 | > 100 | > 100 | > 100 µM | > 100 | – | – | – | – | – | –
8 | CCOC(=O)C1=C(C)NC(=S)NC1c1cccc(O)c1 (centres undefined) | 87.6 | > 96.5 | > 100 | > 100 | > 100 | > 100 | > 100 | > 100 µM | > 100 | > 100 | – | – | – | – | –
9 | COc1cc(/C=C2/SC(c3ccccc3)N(c3cccc([N+](=O)[O-])c3)C2=O)cc(OC)c1OC (centres undefined) | > 100 | > 100 | > 100 | > 100 | > 100 | > 100 | > 100 | > 100 µM | > 100 | > 100 | – | – | – | – | –
10 | CCOC(=O)c1sc2c(c1OC(=O)c1ccccc1)c(=O)n(-c1ccccc1)c(=S)n2-c1ccccc1 | 31 | 46.5 | > 100 | 64.2 | > 100 | 41.5 | 48.9 | > 100 µM | 54.4 | > 100 | – | – | – | – | –
11 | OC1OC(c2ccco2)C(F)(F)C(F)(F)C1(F)F (centres undefined) | > 100 | > 100 | – | > 100 | > 100 | > 100 | – | > 100 µM | > 100 | > 100 | – | – | – | – | –
12 | COS(=O)c1cc(Cl)cc(Cl)c1O (centres undefined) | > 100 | > 100 | > 100 | – | > 100 | > 100 | > 100 | > 100 µM | > 100 | > 100 | – | – | – | – | –
13 | O=C1OS2(OCc3cccc4cccc2c34)c2ccccc21 (centres undefined) | > 100 | > 100 | > 100 | > 100 | > 100 | > 100 | > 100 | > 100 µM | > 100 | > 100 | – | – | – | – | –
14 | CSC1SCC2C(=O)N(C)C3(CC3C)C(=O)OCC(NC(=O)c3nc4ccccc4cc3O)C(=O)NC(C)C(=O)N(C)C1C(=O)N(C)C1(CC1C)C(=O)OCC(NC(=O)c1nc3ccccc3cc1O)C(=O)NC(C)C(=O)N2C (centres undefined) | < 0.0001 | < 0.0001 | – | 20.1 | 0.000416 | 0.875 | < 0.0001 | 0.648 µM and 0.0992 µM | – | < 0.0001 | – | – | – | – | –
15 | COc1ccc(-c2c(C#N)c(-c3ccccc3)n(NS(=O)(=O)c3ccccc3)c(=O)c2C#N)cc1 | > 100 | > 100 | 91.2 | > 100 | > 100 | > 100 | – | > 100 µM | > 100 | > 100 | – | – | – | – | –
16 | CC1=CC[C@@H]2CC[C@]3(C)[C@H](CC[C@@H]4[C@@]5(C)CCCNC(C)(C)[C@@H]5CC[C@]43C)[C@H]2[C@@H]1C | 3.6 | – | – | – | 3.37 | 3.09 | 3.37 | 3.38 µM | – | – | 1.87 | 1.81 | 1.48 | 1.78 | 1.74
17 | CSc1ncc2c(n1)-c1ccccc1OC2N1CCCC1 (centres undefined) | 26.1 | > 100 | > 100 | > 100 | > 100 | > 100 | > 100 | > 100 µM | – | > 100 | – | – | – | – | –
18 | CCOC(=O)c1cn(-c2ccc(Cl)cc2)c(=O)n2c1nc1ccccc12 | > 100 | > 100 | > 100 | > 100 | – | > 100 | > 100 | > 100 µM | > 100 | > 100 | – | – | – | – | –
19 | COC(=O)[C@@H]1N2C(=S)N(c3ccccc3)C(=O)[C@H]2SC1(C)C | > 100 | > 100 | > 100 | > 100 | > 100 | > 100 | > 100 | > 100 µM | > 100 | – | – | – | – | – | –
20 | C/C=C/[C@H]1O[C@@](OC)([C@@H](C)[C@H](O)[C@H](C)[C@H]2OC(=O)/C(OC)=C/C(C)=C/[C@@H](C)[C@@H](O)[C@@H](C)[C@@H](O)[C@H](C)C/C(C)=C/C=C/[C@@H]2OC)CC(OC2CC(O)C(OC(N)=O)C(C)O2)[C@@H]1C (some centres undefined) | 21 | 9.71 | < 0.01 | 14.8 | 23.3 | 4.17 | 21.7 | 12.8 µM | 1.4 | – | – | – | – | – | –
21 | COC(=O)C(C)Sc1nc2cc(Cl)ccc2s1 (centres undefined) | > 100 | > 100 | > 100 | > 100 | – | > 100 | > 100 | > 100 µM | > 100 | > 100 | – | – | – | – | –
